Laboratory results published in ChEMBL document CHEMBL1140532, “Omega-alkoxy analogues of SAHA (vorinostat) as inhibitors of HDAC: a study of chain-length and stereochemical dependence” (Bioorg Med Chem Lett, 2007).

Legend:
NCI-H460 = assay: Growth inhibition of human H460 cells by SRB assay; format: functional, cell-based
NB-4 = assay: Growth inhibition of human NB4 cells by SRB assay; format: functional, cell-based
Histone deacetylase 2 = Histone deacetylase 2 (Homo sapiens, UniProt Q92769); assay: Inhibition of HDAC2 in HeLa cell lysates
HCT-116 = assay: Growth inhibition of human HCT116 cells by SRB assay; format: functional, cell-based

Sequence of Histone deacetylase 2 (Q92769 whole entry): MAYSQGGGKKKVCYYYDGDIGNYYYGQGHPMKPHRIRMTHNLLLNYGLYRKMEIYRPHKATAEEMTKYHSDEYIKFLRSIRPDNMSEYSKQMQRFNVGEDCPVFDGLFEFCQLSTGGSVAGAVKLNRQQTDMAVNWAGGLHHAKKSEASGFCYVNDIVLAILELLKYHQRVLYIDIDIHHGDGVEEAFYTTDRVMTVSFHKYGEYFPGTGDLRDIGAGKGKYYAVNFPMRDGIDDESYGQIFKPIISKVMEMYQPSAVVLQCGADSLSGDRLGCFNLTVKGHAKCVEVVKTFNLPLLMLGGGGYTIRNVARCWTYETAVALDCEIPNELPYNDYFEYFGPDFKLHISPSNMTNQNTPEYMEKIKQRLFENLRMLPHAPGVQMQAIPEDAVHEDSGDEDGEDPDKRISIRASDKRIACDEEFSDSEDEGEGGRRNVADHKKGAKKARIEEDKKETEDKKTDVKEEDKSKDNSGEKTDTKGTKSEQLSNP

Compound	IC50 (NCI-H460)	IC50 (NB-4)	IC50 (Histone deacetylase 2)	IC50 (HCT-116)
COc1ccc(CO[C@H](CCCCCC(=O)NO)C(=O)Nc2ccccc2)cc1	500 nM	70 nM	≥ 50 nM	390 nM
O=C(CCCCCC(OCc1ccc(C(F)(F)F)cc1)C(=O)Nc1ccccc1)NO (stereo not given)	480 nM	170 nM	≥ 50 nM	430 nM
Cc1ccc(COC(CCCCCC(=O)NO)C(=O)Nc2ccccc2)cc1 (stereo not given)	590 nM	120 nM	≥ 50 nM	270 nM
COc1cccc(COC(CCCCCC(=O)NO)C(=O)Nc2ccccc2)c1 (stereo not given)	590 nM	160 nM	≥ 50 nM	630 nM
COc1cccc(COC(CCCCCC(=O)NO)C(=O)N(Cc2cccc(OC)c2)c2ccccc2)c1 (stereo not given)	7400 nM	4000 nM	500 nM	7500 nM
COc1cc(COC(CCCCCC(=O)NO)C(=O)Nc2ccccc2)cc(OC)c1 (stereo not given)	450 nM	50 nM	≥ 50 nM	300 nM
COc1ccc(NC(=O)C(CCCCCC(=O)NO)OCc2ccccc2)cc1 (stereo not given)	1000 nM	250 nM	500 nM	500 nM
COc1ccc(COC(CCCCCC(=O)NO)C(=O)Nc2ccc(OC)cc2)cc1 (stereo not given)	300 nM	150 nM	500 nM	340 nM
O=C(CCCCCC(O)C(=O)Nc1ccccc1)NO (stereo not given)	460 nM	340 nM	500 nM	1090 nM
COC(CCCCCC(=O)NO)C(=O)Nc1ccccc1 (stereo not given)	1200 nM	520 nM	500 nM	880 nM
COc1ccc(COC(CCCCCC(=O)NO)C(=O)Nc2ccccc2)cc1 (stereo not given)	520 nM	120 nM	≥ 50 nM	220 nM
COc1ccc(CO[C@@H](CCCCCC(=O)NO)C(=O)Nc2ccccc2)cc1	450 nM	110 nM	≥ 50 nM	250 nM
COC(CCCCC(=O)NO)C(=O)Nc1ccccc1 (stereo not given)	5700 nM	3500 nM	500 nM	5000 nM
CCCOC(CCCCC(=O)NO)C(=O)Nc1ccccc1 (stereo not given)	10400 nM	4100 nM	500 nM	8500 nM
O=C(CCCCCC(Oc1cccc(Oc2ccccc2)c1)C(=O)Nc1ccccc1)NO (stereo not given)	680 nM	230 nM		670 nM
O=C(CCCCCC(OCc1ccc(Br)cc1)C(=O)Nc1ccccc1)NO (stereo not given)	490 nM	60 nM	≥ 50 nM	280 nM
O=C(CCCCC(OCc1ccccc1)C(=O)Nc1ccccc1)NO (stereo not given)	5500 nM	> 5000 nM	500 nM	2400 nM
C=CCOC(CCCCCC(=O)NO)C(=O)Nc1ccccc1 (stereo not given)	1790 nM	450 nM	500 nM	990 nM
C=CCOC(CCCCCCC(=O)NO)C(=O)Nc1ccccc1 (stereo not given)	1800 nM	620 nM	≥ 50 nM	950 nM
